How the values were obtained:
[1] = test system: MERS-CoV strain France-UAE/1612/2013; assay: microbe, parasite or virus in culture; type: cell-based, MERS-CoV coronavirus; settings: for IC50: Middle East respiratory syndrome-related coronavirus, Vero C1008, 24 h, read-out: IC50 (dose necessary to obtain a 50% viral production inhibition)
horses = horses versus ruminants; cited from earlier work

Structure (SMILES)	reduction of the infectious titres with respect to the control ([1]; 6 μM) [%]	IC50 [1] [nM]	LD50 in horses, times less than in ruminants (horses) [times]	reduction of the infectious titres with respect to the control ([1]; 12.5 μM) [%]
CC[C@@]1([C@@H]2O[C@@H]([C@H]3O[C@@](O)(CO)[C@H](C)C[C@@H]3C)C[C@@H]2C)CC[C@H]([C@]2(C)CC[C@]3(C[C@H](O)[C@@H](C)[C@@H]([C@@H](C)[C@@H](OC)[C@H](C)C(=O)O)O3)O2)O1 [monensin, Monensin]	97.8	1250	100	
COc1ccc2cc3[n+](cc2c1OC)CCc1cc2c(cc1-3)OCO2 [berberine, Berberine]		3800		78.4

Reference: patent publication US11510896B2, “Antiviral compositions for the treatment of infections linked to coronaviruses” (priority 2016, dated 2022)
